Measured values as given in ChEMBL document CHEMBL1201862, “PubChem BioAssay data set” (2004).
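How tested: cells in 96-well plates exposed to compound for 48 hours at five concentrations. GI50 marks 50% less growth.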 Active and inactive are the calls of the source. Cut-off read from the data, not from the text of the source: active = GI50 up to about 1.1 µM and inactive = higher.

Assays:
Assay in all cases: growth of human tumour cells (NCI), 48 h
ACHN = test system: ACHN
COLO 205 = test system: COLO 205
DMS-114 = test system: DMS-114
EKVX = test system: EKVX
HCT-15 = test system: HCT-15
HOP-62 = test system: HOP-62
M14 = test system: M14
MCF7 = test system: MCF7
MDA-MB-231 = test system: MDA-MB-231
MOLT-4 = test system: MOLT-4
NCI-H522 = test system: NCI-H522
OVCAR-3 = test system: OVCAR-3
PC-3 = test system: PC-3
SF-295 = test system: SF-295
SK-MEL-2 = test system: SK-MEL-2
SK-MEL-5 = test system: SK-MEL-5
SK-OV-3 = test system: SK-OV-3
SN12C = test system: SN12C
SNB-75 = test system: SNB-75
SW-620 = test system: SW-620

CC(=O)OC1=CC(n2cc(F)c(=O)[nH]c2=O)OC(C)C1=O (stereo not drawn)
GI50 (ACHN): 18.4 µM (inactive)
GI50 (COLO 205): 15.3 µM (inactive)
GI50 (DMS-114): 99.3 µM (inactive)
GI50 (EKVX): > 88.5 µM (inactive)
GI50 (HCT-15): 8.95 µM
GI50 (HOP-62): 23.7 µM (inactive)
GI50 (M14): 61.2 µM (inactive)
GI50 (MCF7): 4.28 µM (inactive)
GI50 (MDA-MB-231): > 88.7 µM (inactive)
GI50 (MOLT-4): 39.8 µM (inactive)
GI50 (NCI-H522): > 95.5 µM (inactive)
GI50 (OVCAR-3): 25.3 µM (inactive)
GI50 (PC-3): 53 µM (inactive)
GI50 (SF-295): 48.9 µM (inactive)
GI50 (SK-MEL-2): > 100 µM (inactive)
GI50 (SK-MEL-5): 13.2 µM (inactive)
GI50 (SK-OV-3): 99.1 µM (inactive)
GI50 (SN12C): 67.8 µM (inactive)
GI50 (SNB-75): 51.1 µM (inactive)
GI50 (SW-620): 59 µM (inactive)

COc1cc(C(=O)NC2CCc3cc(OC)c(OC)c(OC)c3-c3ccc(OC)c(=O)cc32)cc(OC)c1OC (stereo not drawn)
GI50 (ACHN): 2.65 µM (inactive)
GI50 (COLO 205): 0.0585 µM (active)
GI50 (DMS-114): 0.0233 µM (active)
GI50 (EKVX): 12 µM (inactive)
GI50 (HCT-15): 3.53 µM
GI50 (HOP-62): 0.471 µM (active)
GI50 (M14): 0.202 µM (active)
GI50 (MCF7): < 0.0176 µM (active)
GI50 (MDA-MB-231): 0.0306 µM (active)
GI50 (MOLT-4): 0.0451 µM (active)
GI50 (NCI-H522): 0.0234 µM (active)
GI50 (OVCAR-3): 0.0372 µM (active)
GI50 (PC-3): 0.0807 µM (active)
GI50 (SF-295): 0.153 µM (active)
GI50 (SK-MEL-2): 0.0935 µM (active)
GI50 (SK-MEL-5): 0.0553 µM (active)
GI50 (SK-OV-3): 0.231 µM (active)
GI50 (SN12C): 0.199 µM (active)
GI50 (SNB-75): 0.13 µM (active)
GI50 (SW-620): 0.0521 µM (active)

CC[C@](O)(C(=O)O)c1cc2n(c(=O)c1CO)Cc1cc3ccccc3nc1-2
GI50 (ACHN): 0.0025 µM (active)
GI50 (COLO 205): 0.234 µM (active)
GI50 (DMS-114): 0.025 µM (active)
GI50 (EKVX): 0.0371 µM (active)
GI50 (HCT-15): 0.0964 µM
GI50 (HOP-62): 0.0025 µM (active)
GI50 (M14): 0.00292 µM (active)
GI50 (MCF7): 0.061 µM (active)
GI50 (MDA-MB-231): 0.665 µM (active)
GI50 (MOLT-4): 0.0257 µM (active)
GI50 (NCI-H522): 0.0306 µM (active)
GI50 (PC-3): 0.131 µM (active)
GI50 (SF-295): 0.025 µM (active)
GI50 (SK-MEL-2): 0.23 µM (active)
GI50 (SK-MEL-5): 0.0333 µM (active)
GI50 (SK-OV-3): 0.0372 µM (active)
GI50 (SN12C): 0.025 µM (active)
GI50 (SNB-75): 0.0333 µM (active)

CC(C(=O)n1c2ccccc2c2ccccc21)N(c1ccccc1)c1ccccc1 (stereo not drawn)
GI50 (ACHN): 16.6 µM (inactive)
GI50 (COLO 205): 17.4 µM (inactive)
GI50 (DMS-114): 17.4 µM (inactive)
GI50 (EKVX): 19.4 µM (inactive)
GI50 (HCT-15): 17 µM
GI50 (HOP-62): 16.3 µM (inactive)
GI50 (M14): 16.7 µM (inactive)
GI50 (MOLT-4): 11 µM (inactive)
GI50 (NCI-H522): 2.75 µM (inactive)
GI50 (OVCAR-3): 17.8 µM (inactive)
GI50 (SF-295): 19.4 µM (inactive)
GI50 (SK-MEL-2): 15.1 µM (inactive)
GI50 (SK-MEL-5): 20.1 µM (inactive)
GI50 (SK-OV-3): 18.7 µM (inactive)
GI50 (SN12C): 19.9 µM (inactive)
GI50 (SNB-75): 20.2 µM (inactive)
GI50 (SW-620): 19.8 µM (inactive)

Cc1cc2c(cc1C)[n+]([O-])c(-c1c(Cl)cccc1Cl)c(N)[n+]2[O-]
GI50 (ACHN): 36.5 µM (inactive)
GI50 (COLO 205): 18.7 µM (inactive)
GI50 (DMS-114): 22.6 µM (inactive)
GI50 (EKVX): 46.3 µM (inactive)
GI50 (HCT-15): 28.4 µM
GI50 (HOP-62): 30.5 µM (inactive)
GI50 (M14): 33 µM (inactive)
GI50 (MOLT-4): 26.2 µM (inactive)
GI50 (NCI-H522): 9.27 µM (inactive)
GI50 (OVCAR-3): 28.2 µM (inactive)
GI50 (SF-295): 42.5 µM (inactive)
GI50 (SK-MEL-2): 31.6 µM (inactive)
GI50 (SK-MEL-5): 20.7 µM (inactive)
GI50 (SK-OV-3): 66.4 µM (inactive)
GI50 (SN12C): 50.9 µM (inactive)
GI50 (SNB-75): > 100 µM (inactive)
GI50 (SW-620): 35.1 µM (inactive)

Cc1ccc(C)c(N2C(=O)C(=O)C(c3nc4ccccc4o3)/C(=N/N)C2=O)c1 (stereo not drawn)
GI50 (ACHN): > 100 µM (inactive)
GI50 (COLO 205): > 100 µM (inactive)
GI50 (DMS-114): > 100 µM (inactive)
GI50 (EKVX): > 100 µM (inactive)
GI50 (HCT-15): > 100 µM
GI50 (HOP-62): > 100 µM (inactive)
GI50 (M14): > 100 µM (inactive)
GI50 (MOLT-4): > 100 µM (inactive)
GI50 (NCI-H522): > 100 µM (inactive)
GI50 (OVCAR-3): > 100 µM (inactive)
GI50 (SF-295): > 100 µM (inactive)
GI50 (SK-MEL-2): > 100 µM (inactive)
GI50 (SK-MEL-5): > 100 µM (inactive)
GI50 (SK-OV-3): > 100 µM (inactive)
GI50 (SN12C): > 100 µM (inactive)
GI50 (SNB-75): 95.7 µM (inactive)
GI50 (SW-620): > 100 µM (inactive)

COc1ccc(/C=C/C(=O)c2c(-c3ccccc3)nn(C)c(=O)c2N2CC2C)cc1 (stereo not drawn)
GI50 (ACHN): 36.2 µM (inactive)
GI50 (COLO 205): 34.3 µM (inactive)
GI50 (DMS-114): 24.7 µM (inactive)
GI50 (EKVX): 19.6 µM (inactive)
GI50 (HCT-15): 24.3 µM
GI50 (HOP-62): 35.6 µM (inactive)
GI50 (M14): 28.8 µM (inactive)
GI50 (MOLT-4): 25.5 µM (inactive)
GI50 (NCI-H522): 22.7 µM (inactive)
GI50 (OVCAR-3): 24.3 µM (inactive)
GI50 (SF-295): 33.8 µM (inactive)
GI50 (SK-MEL-2): 21.8 µM (inactive)
GI50 (SK-MEL-5): 29.4 µM (inactive)
GI50 (SK-OV-3): 30.2 µM (inactive)
GI50 (SN12C): 37 µM (inactive)
GI50 (SNB-75): 24.8 µM (inactive)
GI50 (SW-620): 26.4 µM (inactive)

CC1NOC(=O)C1/N=N/c1cccc(Cl)c1 (stereo not drawn)
GI50 (ACHN): 40.9 µM (inactive)
GI50 (COLO 205): 20.5 µM (inactive)
GI50 (DMS-114): 22.4 µM (inactive)
GI50 (EKVX): 37.5 µM (inactive)
GI50 (HCT-15): 17.7 µM
GI50 (HOP-62): 51.3 µM (inactive)
GI50 (M14): 62.2 µM (inactive)
GI50 (MOLT-4): 24.5 µM (inactive)
GI50 (NCI-H522): 23.5 µM (inactive)
GI50 (OVCAR-3): 22.5 µM (inactive)
GI50 (SF-295): 34 µM (inactive)
GI50 (SK-MEL-2): 16.5 µM (inactive)
GI50 (SK-MEL-5): 19.9 µM (inactive)
GI50 (SK-OV-3): 28.8 µM (inactive)
GI50 (SN12C): 21.7 µM (inactive)
GI50 (SNB-75): 36.1 µM (inactive)
GI50 (SW-620): 10 µM (inactive)

CCN(CC)CC(C(=O)Nc1c(C)cccc1C)/C(C)=N/NC(N)=S (stereo not drawn)
GI50 (ACHN): > 100 µM (inactive)
GI50 (COLO 205): > 100 µM (inactive)
GI50 (DMS-114): > 100 µM (inactive)
GI50 (EKVX): > 100 µM (inactive)
GI50 (HOP-62): > 100 µM (inactive)
GI50 (M14): > 100 µM (inactive)
GI50 (MOLT-4): > 100 µM (inactive)
GI50 (NCI-H522): > 100 µM (inactive)
GI50 (OVCAR-3): > 100 µM (inactive)
GI50 (SF-295): > 100 µM (inactive)
GI50 (SK-MEL-2): > 100 µM (inactive)
GI50 (SK-MEL-5): > 100 µM (inactive)
GI50 (SK-OV-3): > 100 µM (inactive)
GI50 (SNB-75): > 100 µM (inactive)
GI50 (SW-620): > 100 µM (inactive)

CCOC(=O)NC(=O)c1cn(CCN2CCN(C(=O)NCCCCCCNC(=O)N3CCN(CCn4cc(C(=O)NC(=O)OCC)c(=O)[nH]c4=O)CC3)CC2)c(=O)[nH]c1=O
GI50 (ACHN): > 100 µM (inactive)
GI50 (COLO 205): > 100 µM (inactive)
GI50 (DMS-114): > 100 µM (inactive)
GI50 (EKVX): > 100 µM (inactive)
GI50 (HCT-15): > 100 µM
GI50 (HOP-62): > 100 µM (inactive)
GI50 (M14): > 100 µM (inactive)
GI50 (NCI-H522): > 100 µM (inactive)
GI50 (OVCAR-3): > 100 µM (inactive)
GI50 (SF-295): > 100 µM (inactive)
GI50 (SK-MEL-2): > 100 µM (inactive)
GI50 (SK-MEL-5): > 100 µM (inactive)
GI50 (SK-OV-3): > 100 µM (inactive)
GI50 (SN12C): > 100 µM (inactive)
GI50 (SNB-75): > 100 µM (inactive)
GI50 (SW-620): > 100 µM (inactive)

OC(c1ccccn1)C1CNc2ccccc21 (stereo not drawn)
GI50 (ACHN): > 100 µM (inactive)
GI50 (COLO 205): > 100 µM (inactive)
GI50 (DMS-114): > 100 µM (inactive)
GI50 (EKVX): > 100 µM (inactive)
GI50 (HCT-15): > 100 µM
GI50 (HOP-62): > 100 µM (inactive)
GI50 (M14): > 100 µM (inactive)
GI50 (MOLT-4): > 100 µM (inactive)
GI50 (NCI-H522): > 100 µM (inactive)
GI50 (OVCAR-3): > 100 µM (inactive)
GI50 (SF-295): > 100 µM (inactive)
GI50 (SK-MEL-2): > 100 µM (inactive)
GI50 (SK-MEL-5): > 100 µM (inactive)
GI50 (SK-OV-3): > 100 µM (inactive)
GI50 (SN12C): > 100 µM (inactive)
GI50 (SNB-75): 22.1 µM (inactive)
GI50 (SW-620): > 100 µM (inactive)

CS/C(=N\C(=S)Nc1ccccc1)Nc1ccccc1
GI50 (ACHN): 17.5 µM (inactive)
GI50 (COLO 205): 23.8 µM (inactive)
GI50 (DMS-114): 0.743 µM (active)
GI50 (EKVX): > 10 µM (inactive)
GI50 (HCT-15): 17.9 µM
GI50 (HOP-62): 27.9 µM (inactive)
GI50 (M14): 21.4 µM (inactive)
GI50 (MOLT-4): 12.9 µM (inactive)
GI50 (NCI-H522): 14.6 µM (inactive)
GI50 (OVCAR-3): 21 µM (inactive)
GI50 (SF-295): 21.5 µM (inactive)
GI50 (SK-MEL-2): 15.5 µM (inactive)
GI50 (SK-MEL-5): 6.01 µM (inactive)
GI50 (SK-OV-3): 27 µM (inactive)
GI50 (SN12C): 18.3 µM (inactive)
GI50 (SNB-75): 16.3 µM (inactive)
GI50 (SW-620): 23.1 µM (inactive)
